Measured values as given in patent US12440507B2, “Sting inhibitors and their therapeutic uses” (CENTRE NATIONAL DE LA RECHERCHE SCIENTIFIQUE, priority 2019, dated 2025).

What was measured:
MEF^Trex1−/− = assay: Ifnβ / type I interferon mRNA levels (RT-qPCR) in treated MEF^Trex1−/−; format: cell-based, mouse; details: 500 μM
Method: (§1) RNA extraction and RT-qPCR RNA was extracted using Trizol (Invitrogen) and treated with TURBO DNase (Ambion) according to manufacturers' protocols. Reverse transcription (SuperScript IV reverse transcriptase; Invitrogen) and qPCR using specific primers were performed using SYBR GREEN (Takara) master mix and LightCycler 480 cycler (Roche). mRNA levels were normalized to Gapdh mRNA levels except in zebrafish experiments where mRNA levels were normalized to zebrafish actin (zactin).
(§2) Cells were transfected with JetPrime transfection reagent (Polyplus) at 1:2 ratio with various nucleic acids at 2 μg/ml. […] Ap4A or STAN-1 (Sigma Aldrich) were used at 500 μM in Optimem.
Next, to test whether Ap4A inhibits inflammatory responses via a STING-dependent mechanism, the inventors used three-prime repair exonuclease 1 (Trex1)-deficient mouse embryonic fibroblasts (MEF^Trex1−/−—FIG. S1D), as these are a well-characterized model of pathologic chronic inflammation with STING-dependent elevated Ifnβ levels (FIG. S1D)—(15, 16). First, the inventors treated MEF^Trex1−/− with Ap4A for 45, 90 and 180 min. […] To further assess the impact of Ap4A on STING activation and to avoid potential side effects of the addition of exogenous Ap4A to cells, the inventors next performed experiments where they modulate the expression levels of LysRS, the main producer of Ap4A (9, 10). […]

MEF^STING−/− = assay: DMXAA-induced Ifnβ expression in STING knockout MEF; format: cell-based, mouse; details: 200 μM DMXAA, treated with Ap4A for 2 h
Method: Data are normalized to non-treated control.
as §1, §2

GST-STING139-378 = molecular target: T1, GST-STING139-378 (Mus musculus, UniProt Q3TBT3); assay: Pull-down using biotinylated Ap4A and recombinant proteins (in vitro binding and competition); details: for Competition for the binding of STING to biotinylated Ap4A: 10-fold excess of the competitor, 1 h at 4° C.
T1 construct: GST-STING (aa 139-378); made in house; host or cells: Escherichia coli BL21
T1 sequence (Q3TBT3 139-378): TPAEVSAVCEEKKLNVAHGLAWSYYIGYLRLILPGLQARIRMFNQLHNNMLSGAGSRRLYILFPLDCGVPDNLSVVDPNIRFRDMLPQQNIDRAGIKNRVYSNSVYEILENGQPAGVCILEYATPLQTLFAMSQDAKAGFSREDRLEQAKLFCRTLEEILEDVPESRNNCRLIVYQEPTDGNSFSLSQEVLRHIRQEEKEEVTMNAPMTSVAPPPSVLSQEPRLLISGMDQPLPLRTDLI

WT-MEF = assay: DMXAA-induced Ifnβ expression in WT-MEF; format: cell-based, mouse; details: 200 μM DMXAA, treated with Ap4A for 2 h
Method: Data are normalized to non-treated control. Unpaired t-test. **: p<0.005.
as §1, §2

Molecule	type I interferon expression (IFNα and IFNβ mRNA levels) (MEF^Trex1−/−; 3 hrs, RT-qPCR)	Ifnβ mRNA levels (MEF^Trex1−/−; Ap4A 45, 90 and 180 min, STAN-1 3 h, versus untreated)	Ability of DMXAA to induce Ifnβ expression on co-treatment (MEF^STING−/−)	Competition for the binding of STING to biotinylated Ap4A (GST-STING139-378)	Interaction of STING139-378 with Streptavidin-immobilized biotinylated Ap4A (GST-STING139-378; Western blotting of pull-down)	Ability of DMXAA to induce Ifnβ expression on co-treatment (WT-MEF)
Nc1ncnc2c1ncn2[C@@H]1O[C@H](COP(=O)(O)OP(=O)(O)OP(=O)(O)OP(=O)(O)OC[C@H]2O[C@@H](n3cnc4c(N)ncnc43)[C@H](O)[C@@H]2O)[C@@H](O)[C@H]1O [Ap4A, Diadenosine tetraphosphate]	decreases type I interferon expression	decreased Ifni mRNA levels	no decrease was observed	specific	interacts	by half
cyclic GMP-AMP [cGAMP]	–	–	–	displaced	–	–
